In PMC6740193 (ACS Omega, 2019):

Target: T1, 1-deoxy-D-xylulose-5-phosphate reductoisomerase (DXR) (Escherichia coli, UniProt P45568)
T1 sequence (P45568 1-398): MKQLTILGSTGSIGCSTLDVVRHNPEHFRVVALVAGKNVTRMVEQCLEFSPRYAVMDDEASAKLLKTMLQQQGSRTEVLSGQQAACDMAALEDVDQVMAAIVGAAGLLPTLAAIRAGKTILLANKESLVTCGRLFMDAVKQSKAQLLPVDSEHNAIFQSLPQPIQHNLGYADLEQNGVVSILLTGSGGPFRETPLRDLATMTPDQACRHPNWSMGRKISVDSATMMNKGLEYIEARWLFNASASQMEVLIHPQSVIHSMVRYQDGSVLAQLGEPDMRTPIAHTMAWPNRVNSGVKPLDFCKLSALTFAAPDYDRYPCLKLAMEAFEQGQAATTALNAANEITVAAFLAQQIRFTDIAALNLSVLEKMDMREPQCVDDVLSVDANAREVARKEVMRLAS
Assay: recombinant enzyme assay, NADPH consumption at […] nm
Assay type: biochemical

O=P(O)(O)CCCB(O)O [compound 4, 3-Borono Propyl Phosphonic Acid]
IC50: 128 ± 3 µM
